{"source": "patent US4079139A", "about": "“Flavone derivatives” (priority 1974, dated 1978)", "key": {"[1]": {"system": "respiratory and cardiocirculatory activity", "details": "rabbit; for convulsive phenomena: in vivo, iv"}, "[2]": {"system": "toxicity of sodium Pentobarbital", "experiment": "\"Life-saving\" effect: influence on the toxicity of sodium Pentobarbital", "details": "for PR (ratio between the LD50 of Pentobarbital with and without pre-treatment with the stimulant): mouse, in vivo"}, "mouse [3]": {"system": "mouse", "experiment": "Convulsivant effect on mouse", "details": "for stimulant action on the CNS indicated by the ratio LD50/CD50: mouse, in vivo"}, "[4]": {"experiment": "Convulsivant effect on mouse", "details": "mouse, in vivo, po"}, "Mouse [5]": {"system": "Mouse", "details": "cited from earlier work"}, "rat": {"system": "rat", "experiment": "Chronic toxicity in rat"}, "mouse [6]": {"system": "mouse", "details": "in vivo"}, "[7]": {"experiment": "Stimulating activity on the CNS (analeptic activity, ED50)", "assay_type": "in vivo"}, "Acute toxicity in rat": {"experiment": "Acute toxicity in rat", "set-up": "species or system rats Sprague-Dauley", "details": "in vivo, read-out: LD50 and F.L.", "procedure": "The test has been performed on Swiss mice of the weight of 20-22 g and on rats Sprague-Dauley of the weight of 120-130 g, subdivided in groups comprising 5 male and 5 female animals. The new drugs have been administered to animals hungry since 15-18 hours, both by oral and i.p.route. The LD50 values have been determined according to Litchfield and Wilcoxon (J.Pharmacol.96,99,1949). The results are reported in the following Table 1, in comparison with LD50 value for Dimefline."}, "[8]": {"system": "respiratory depression induced by morphine", "details": "rabbit"}, "Mouse [9]": {"system": "Mouse", "experiment": "Acute toxicity in mouse", "details": "in words"}, "Acute toxicity in mouse": {"experiment": "Acute toxicity in mouse", "details": "mouse, in vivo"}, "[10]": {"details": "rat, 5 and 10 mg/kg, 5 times/week over 12 weeks"}}, "note": "Read-outs that look alike come from different tables or passages of the source.", "data": [{"compound": "COc1ccc2c(=O)c(C)c(-c3ccccc3)oc2c1CN(C)C", "note": "[Dimefline]", "values": [{"measurement": "convulsive phenomena", "setting": "[1]", "value": "several cases showing convulsive phenomena"}, {"measurement": "PR (ratio between the LD50 of Pentobarbital with and without pre-treatment with the stimulant)", "setting": "[2]", "value": "1,27"}, {"measurement": "start of the convulsivant effect", "setting": "mouse [3]; in comparison with PV1, in words", "value": "starts at by far lower doses"}, {"measurement": "stimulant action on the CNS indicated by the ratio LD50/CD50", "setting": "mouse [3]", "value": "equivalent for the two drugs"}, {"measurement": "TD50", "setting": "[4]", "value": 8.9, "unit": "mg/kg"}, {"measurement": "LD50 and F.L.", "setting": "Mouse [5]; i.p., Setnikar, J.Pharmacol.128, 176, 1960", "value": "4.8 (4.6-5.0) mg/KG"}, {"measurement": "LD50 and F.L.", "setting": "Mouse [5]; in vivo, po", "value": "11.9 (10.3-13.8) mg/KG"}, {"measurement": "LD50 and L.F.", "setting": "Mouse [5]; in vivo", "value": "11,9 (10,3-13,8) mg/Kg"}]}, {"compound": "COc1ccc2c(=O)c(-c3ccccc3)c(-c3ccc(C)cc3)oc2c1CN(C)C", "note": "[PV1]", "values": [{"measurement": "HB", "setting": "rat; 5 mg/Kg, 12 weeks", "value": "14,88 ± 0,36%"}, {"measurement": "Hemazies", "setting": "rat; 5 mg/Kg, 12 weeks", "value": "7,38 ± 0,21 10^6 /mm^3"}, {"measurement": "Leucocytes", "setting": "rat; 5 mg/Kg, 12 weeks", "value": "17,04 ± 1,36 10^3 /mm^3"}, {"measurement": "Leucocytic formula: bas", "setting": "rat; 5 mg/Kg, 12 weeks", "value": 0}, {"measurement": "Leucocytic formula: eosin", "setting": "rat; 5 mg/Kg, 12 weeks", "value": "0,9"}, {"measurement": "Leucocytic formula: linf.", "setting": "rat; 5 mg/Kg, 12 weeks", "value": "77,6"}, {"measurement": "Leucocytic formula: monoc.", "setting": "rat; 5 mg/Kg, 12 weeks", "value": "7,9"}, {"measurement": "Leucocytic formula: neutr.", "setting": "rat; 5 mg/Kg, 12 weeks", "value": "13,6"}, {"measurement": "analysis of urine: Hemoglobin", "setting": "rat; 5 mg/kg", "value": "1(+)"}, {"measurement": "analysis of urine: Proteins", "setting": "rat; 5 mg/kg", "value": "6(+)"}, {"measurement": "analysis of urine: Residue", "setting": "rat; 5 mg/kg", "value": "normal"}, {"measurement": "relative average weight: Brain", "setting": "rat; 5 mg/kg", "value": "579,6 ± 24,5 mg/100 g of body weight"}, {"measurement": "relative average weight: Heart", "setting": "rat; 5 mg/kg", "value": "289,9 ± 11,2 mg/100 g of body weight"}, {"measurement": "relative average weight: Liver", "setting": "rat; 5 mg/kg", "value": "3012 mg/100 g of body weight"}, {"measurement": "relative average weight: Loins", "setting": "rat; 5 mg/kg", "value": "658,5 ± 26,4 mg/100 g of body weight"}, {"measurement": "relative average weight: Spleen", "setting": "rat; 5 mg/kg", "value": "304,2 ± 16,6 mg/100 g of body weight"}, {"measurement": "Azotemia", "setting": "rat; 5 mg/kg, 12 weeks", "value": "15,7 ± 0,5 mg/100 ml"}, {"measurement": "Glycemia", "setting": "rat; 5 mg/kg, 12 weeks", "value": "87,8 ± 3,9 mg/100 ml"}, {"measurement": "SGOT", "setting": "rat; 5 mg/kg, 12 weeks", "value": "12,9 ± 0,8 mU/ml"}, {"measurement": "SGPT", "setting": "rat; 5 mg/kg, 12 weeks", "value": "12,1 ± 0,6 mU/ml"}, {"measurement": "HB", "setting": "rat; 10 mg/Kg, 12 weeks", "value": "15,02 ± 0,42%"}, {"measurement": "Hemazies", "setting": "rat; 10 mg/Kg, 12 weeks", "value": "7,40 ± 0,20 10^6 /mm^3"}, {"measurement": "Leucocytes", "setting": "rat; 10 mg/Kg, 12 weeks", "value": "16,70 ± 1,70 10^3 /mm^3"}, {"measurement": "Leucocytic formula: bas", "setting": "rat; 10 mg/Kg, 12 weeks", "value": 0}, {"measurement": "Leucocytic formula: eosin", "setting": "rat; 10 mg/Kg, 12 weeks", "value": "0,7"}, {"measurement": "Leucocytic formula: linf.", "setting": "rat; 10 mg/Kg, 12 weeks", "value": "77,8"}, {"measurement": "Leucocytic formula: monoc.", "setting": "rat; 10 mg/Kg, 12 weeks", "value": "9,4"}, {"measurement": "Leucocytic formula: neutr.", "setting": "rat; 10 mg/Kg, 12 weeks", "value": "12,1"}, {"measurement": "analysis of urine: Hemoglobin", "setting": "rat; 10 mg/kg", "value": "2(+)"}, {"measurement": "analysis of urine: Residue", "setting": "rat; 10 mg/kg", "value": "normal"}, {"measurement": "relative average weight: Brain", "setting": "rat; 10 mg/kg", "value": "583,7 ± 19,8 mg/100 g of body weight"}, {"measurement": "relative average weight: Heart", "setting": "rat; 10 mg/kg", "value": "288,8 ± 11,3 mg/100 g of body weight"}, {"measurement": "relative average weight: Liver", "setting": "rat; 10 mg/kg", "value": "3036,5 mg/100 g of body weight"}, {"measurement": "relative average weight: Loins", "setting": "rat; 10 mg/kg", "value": "672,8 ± 29,6 mg/100 g of body weight"}, {"measurement": "relative average weight: Spleen", "setting": "rat; 10 mg/kg", "value": "303,7 ± 13,5 mg/100 g of body weight"}, {"measurement": "Azotemia", "setting": "rat; 10 mg/kg, 12 weeks", "value": "32,5 ± 1,6 mg/100 ml"}, {"measurement": "Glycemia", "setting": "rat; 10 mg/kg, 12 weeks", "value": "80,3 ± 4,1 mg/100 ml"}, {"measurement": "SGOT", "setting": "rat; 10 mg/kg, 12 weeks", "value": "12,3 ± 0,5 mU/ml"}, {"measurement": "SGPT", "setting": "rat; 10 mg/kg, 12 weeks", "value": "10,4 ± 0,7 mU/ml"}, {"measurement": "deaths", "setting": "rat; [10]", "value": "No death has been registered"}, {"measurement": "increase in the weight of the treated animals", "setting": "rat; [10]", "value": "identical to that of the controls"}, {"measurement": "intolerance of the drug", "setting": "rat; [10]", "value": "No intolerance of the drug has been noted"}, {"measurement": "autopsy", "setting": "rat; rat, 5 and 10 mg/kg, 12 weeks", "value": "no lesion of the different organs"}, {"measurement": "hematologic and hematochemical tests", "setting": "rat; rat, 5 and 10 mg/kg, 12 weeks, vs controls, in words", "value": "do not show significant difference between controls and treated animals"}, {"measurement": "respiratory amplitude and frequency", "setting": "[1]; i.v. 1.25 - 2.5-5 mg/kg, without morphine", "value": "constantly reduced the gradual diminution of the respiratory amplitude and frequency"}, {"measurement": "convulsive phenomena", "setting": "[1]", "value": "no convulsive phenomenon was detected"}, {"measurement": "R(LD50 /CD50)", "setting": "mouse [6]", "value": "1,38"}, {"measurement": "reduction of the toxicity of Pentobarbital", "setting": "[2]; equi-toxic doses, vs Dimefline, in words", "value": "reduces the toxicity of Pentobarbital much more than Dimefline"}, {"measurement": "PR (ratio between the LD50 of Pentobarbital with and without pre-treatment with the stimulant)", "setting": "[2]", "value": "1,39"}, {"measurement": "ED50", "setting": "[7]", "value": 5, "unit": "mg/kg"}, {"measurement": "LD50", "setting": "Acute toxicity in rat; ip", "value": 22.5, "unit": "mg/kg"}, {"measurement": "LD50", "setting": "Acute toxicity in rat; po, os", "value": 76.4, "unit": "mg/kg"}, {"measurement": "antagonism of the intermittent breath of Sheyne-Stoches", "setting": "[8]; i.v. 1.25 mg/kg, after morphine 10 mg/kg", "value": "uneffective"}, {"measurement": "reinstatement of normal respiratory amplitude and frequency", "setting": "[8]; i.v. 2.5 mg/kg, after morphine 10 mg/kg, repeated administration needed", "value": "effective to reinstate normal values of respiratory amplitude and frequency, but needed repeated administration"}, {"measurement": "reinstatement of normal respiratory amplitude and frequency", "setting": "[8]; i.v. 5 mg/kg, after morphine 10 mg/kg, only one administration", "value": "quite effective"}, {"measurement": "cardiocirculatory conditions", "setting": "[8]; in vivo, iv", "value": "not remarkably affected"}, {"measurement": "stimulant action on the CNS indicated by the ratio LD50/CD50", "setting": "mouse [3]", "value": "equivalent for the two drugs"}, {"measurement": "TD50", "setting": "[4]", "value": 58, "unit": "mg/kg"}, {"measurement": "acute toxicity compared with Dimefline", "setting": "Mouse [9]", "value": "by far less toxic than Dimefline"}, {"measurement": "LD50", "setting": "Acute toxicity in mouse", "value": 80, "unit": "mg/kg"}, {"measurement": "LD50", "setting": "Acute toxicity in mouse; ip", "value": 28.2, "unit": "mg/kg"}, {"measurement": "LD50", "setting": "Acute toxicity in mouse; po", "value": 80, "unit": "mg/kg"}]}]}
